# Where two headings read alike, the source gives them in different places.
# How the values were obtained:
# Phytophthora infestans = assay: whole plant or invertebrate; format: in vivo; settings: 24 h, read-out: PHYTIN percent control
# Plasmopara viticola = assay: whole plant or invertebrate; format: in vivo; settings: 24 h, read-out: PLASVI percent control
# Septoria tritici = assay: Leaf Blotch of Wheat, 1-day protectant whole plant test; format: in vivo; settings: Zymoseptoria tritici, 24 h, read-out: SEPTTR percent control
# [1] = 100 ppm spray, wheat plants (variety Monon), one-day protectant test, vs untreated inoculated plants
Structure (SMILES),pest or weed control at 100 ppm (Phytophthora infestans) [%],melting point [°C],pest or weed control at 100 ppm (Plasmopara viticola) [%],pest or weed control at 100 ppm (Septoria tritici; [1]) [%],pest or weed control at 100 ppm (Septoria tritici) [%]
CC(C)OC(=O)N[C@H](CS(=O)(=O)C(C)c1ccc(C#N)cc1)C(C)C (stereo partly drawn) [Compound 2],90 to 100,110 to 120,90 to 100,< 20,–
C#Cc1ccc(C(C)S(=O)(=O)C[C@@H](NC(=O)OC(C)C)C(C)C)cc1 (stereo partly drawn) [Compound 11],90 to 100,125 to 135,50 to 89,50 to 89,–
C=CCC(c1ccc(C#N)cc1)S(=O)(=O)C[C@@H](NC(=O)Oc1ccc(C)cc1)C(C)C (stereo partly drawn) [Compound 26],90 to 100,–,90 to 100,–,–
CC(C)OC(=O)N[C@H](CS(=O)(=O)C(C)c1ccc(Br)c([N+](=O)[O-])c1)C(C)C (stereo partly drawn) [Compound 24],90 to 100,–,90 to 100,–,–
COc1cccc(OC(=O)N[C@H](CS(=O)(=O)C(C)c2ccc(C#N)cc2)C(C)C)c1 (stereo partly drawn) [Compound 43],50 to 89,50 to 53,90 to 100,–,–
Cc1ccc(OC(=O)N[C@H](CS(=O)(=O)C(C)c2ccc(C#N)cc2)C(C)C)cc1C (stereo partly drawn) [Compound 33],90 to 100,–,90 to 100,–,–
"CC(C)OC(=O)N[C@H](CS(=O)(=O)C(Cl)c1ccc(Cl)cc1)C(C)C (stereo partly drawn) [Compound 22, isopropyl 1-({[chloro(4-chlorophenyl)methyl]sulfonyl}methyl)-2-methylpropylcarbamate]",90 to 100,140 to 143,90 to 100,< 20,–
CC(C)[C@@H](CS(=O)(=O)C(C)c1ccc(Br)cc1)NC(=O)Oc1ccc2ccccc2c1 (stereo partly drawn) [Compound 31],90 to 100,129 to 135,90 to 100,–,–
CC(C)OC(=O)N[C@H](CS(=O)(=O)C(C)c1ccc([N+](=O)[O-])cc1)C(C)C (stereo partly drawn) [Compound 13],90 to 100,–,90 to 100,< 20,–
CC(C)OC(=O)N[C@@H](C(C)C)C(C)S(=O)(=O)C(C)c1ccc(Br)cc1 (stereo partly drawn) [Compound 44],90 to 100,–,50 to 89,–,–
CC(C)OC(=O)N[C@H](CS(=O)(=O)C(C)c1ccc(Br)nc1)C(C)C (stereo partly drawn) [Compound 8],50 to 89,–,50 to 89,< 20,–
CCOc1ccc(OC(=O)N[C@H](CS(=O)(=O)C(C)c2ccc(Br)cc2)C(C)C)cn1 (stereo partly drawn) [Compound 32],90 to 100,–,90 to 100,–,–
Cc1ccc(OC(=O)N[C@H](CS(=O)(=O)C(C)c2ccc(C#N)cc2)C(C)C)cc1 (stereo partly drawn) [Compound 29],90 to 100,65 to 74,90 to 100,–,50 to 89
CC[C@@H](CS(=O)(=O)C(C)c1ccc(C#N)cc1)NC(=O)Oc1ccc(F)cc1 (stereo partly drawn) [Compound 42],90 to 100,50 to 62,90 to 100,–,–
CC(C)OC(=O)N[C@H](CS(=O)(=O)C(C)c1ccc(C#N)s1)C(C)C (stereo partly drawn) [Compound 9],90 to 100,–,90 to 100,–,–
C=C(C)OC(=O)N[C@H](CS(=O)(=O)C(C)c1ccc(C#N)cc1)C(C)C (stereo partly drawn) [Compound 28],90 to 100,–,90 to 100,–,–
CCC(C)[C@@H](CS(=O)(=O)C(C)c1ccc(Br)cc1)NC(=O)OC(C)C (stereo partly drawn) [Compound 39],90 to 100,–,90 to 100,–,–
CC[C@@H](CS(=O)(=O)C(C)c1ccc(C#N)cc1)NC(=O)Oc1ccc(C)cc1 (stereo partly drawn) [Compound 38],90 to 100,50 to 60,90 to 100,–,–
CC(C)OC(=O)N[C@H](CS(=O)(=O)C(C)c1cc2ccc(F)cc2o1)C(C)C (stereo partly drawn) [Compound 25],90 to 100,–,90 to 100,–,–
COC(=O)c1ccc(C(C)S(=O)(=O)C[C@@H](NC(=O)OC(C)C)C(C)C)cc1 (stereo partly drawn) [Compound 14],90 to 100,140 to 145,90 to 100,–,–
CC(C)OC(=O)N[C@H](CS(=O)(=O)C(C)c1ccc(C=O)cc1)C(C)C (stereo partly drawn) [Compound 15],90 to 100,50 to 60,90 to 100,–,–

Structure (SMILES),pest or weed control at 100 ppm (Phytophthora infestans) [%],melting point [°C],pest or weed control at 100 ppm (Plasmopara viticola) [%],pest or weed control at 100 ppm (Septoria tritici; [1]) [%],pest or weed control at 100 ppm (Septoria tritici) [%]
CON=Cc1ccc(C(C)S(=O)(=O)C[C@@H](NC(=O)OC(C)C)C(C)C)cc1 (stereo partly drawn) [Compound 12],90 to 100,–,90 to 100,–,–
CC(C)OC(=O)N[C@H](CS(=O)(=O)C(C)c1cccc(F)c1)C(C)C (stereo partly drawn) [Compound 3],90 to 100,–,50 to 89,–,–
CC(C)[C@@H](CS(=O)(=O)C(C)c1ccc(Br)cc1)NC(=O)OC(C)(C)C (stereo partly drawn) [Compound 20],90 to 100,–,50 to 89,20 to 49,–
CC(C)[C@@H](CS(=O)(=O)C(C)c1ccc(C#N)cc1)NC(=O)Oc1ccccc1Br (stereo partly drawn) [Compound 34],90 to 100,–,90 to 100,–,–
COC(C)[C@@H](CS(=O)(=O)C(C)c1ccc(C#N)cc1)NC(=O)Oc1ccc(C)cc1 (stereo partly drawn) [Compound 40],90 to 100,–,90 to 100,–,–
CC(C)[C@@H](CS(=O)(=O)C(C)c1ccc(C#N)cc1)NC(=O)Oc1ccc(Br)cc1 (stereo partly drawn) [Compound 30],90 to 100,–,90 to 100,–,–
CC(C)OC(=O)N[C@H](CS(=O)(=O)C(C)c1nc2ccc(Br)cc2s1)C(C)C (stereo partly drawn) [Compound 10],90 to 100,–,90 to 100,–,–
CC(C)OC(=O)N[C@H](CS(=O)(=O)C(C)c1ccc(Cl)c(Cl)c1)C(C)C (stereo partly drawn) [Compound 5],90 to 100,75 to 85,50 to 89,< 20,–
CC(C)OC(=O)N[C@H](CS(=O)(=O)C(C)c1ccc2ccccc2c1)C(C)C (stereo partly drawn) [Compound 16],90 to 100,–,50 to 89,–,–
CCC(c1ccc(Cl)cc1)S(=O)(=O)C[C@@H](NC(=O)OC(C)C)C(C)C (stereo partly drawn) [Compound 23],50 to 89,–,50 to 89,50 to 89,–
CC(c1ccc(C#N)cc1)S(=O)(=O)C[C@H](CC1CCCCC1)NC(=O)OC(C)(C)C (stereo partly drawn) [Compound 41],50 to 89,58 to 65,90 to 100,–,–
C#CCCOC(=O)N[C@H](CS(=O)(=O)C(C)c1ccc(Br)cc1)C(C)C (stereo partly drawn) [Compound 21],90 to 100,–,50 to 89,50 to 89,–
CC(C)OC(=O)N[C@H](CS(=O)(=O)C(C)c1ccc(OC(F)(F)F)cc1)C(C)C (stereo partly drawn) [Compound 4],90 to 100,50 to 60,90 to 100,< 20,–
CC(C)OC(=O)N[C@H](CS(=O)(=O)C(C)c1ccc(-c2ccccc2)cc1)C(C)C (stereo partly drawn) [Compound 6],90 to 100,–,90 to 100,–,–
CC(C)[C@@H](CS(=O)(=O)C(C)c1ccc(C#N)cc1)NC(=O)Nc1ccc(C(F)(F)F)cc1 (stereo partly drawn) [Compound 37],90 to 100,–,90 to 100,–,–
Cc1cccc(OC(=O)N[C@H](CS(=O)(=O)C(C)c2ccc(C#N)cc2)C(C)C)c1 (stereo partly drawn) [Compound 19],90 to 100,–,90 to 100,–,–
CC(C)OC(=S)N[C@H](CS(=O)(=O)C(C)c1ccc(C#N)cc1)C(C)C (stereo partly drawn) [Compound 35],90 to 100,–,90 to 100,–,–
CCSC(=O)N[C@H](CS(=O)(=O)C(C)c1ccc(C#N)cc1)C(C)C (stereo partly drawn) [Compound 36],50 to 89,–,50 to 89,–,–
CC(C)[C@@H](CS(=O)(=O)C(C)c1ccc(C#N)cc1)NC(=O)Oc1ccc(F)cc1 (stereo partly drawn) [Compound 18],90 to 100,–,90 to 100,–,50 to 89
CC(C)[C@@H](CS(=O)(=O)C(C)c1ccc(C#N)cc1)NC(=O)OCC(Cl)(Cl)Cl (stereo partly drawn) [Compound 27],90 to 100,–,90 to 100,50 to 89,–

# From patent US6815556B2, “Compounds having fungicidal activity and processes to make and use same” (Dow AgroSciences LLC, priority 2000, dated 2004)
